{
  "source": "paper PMC9620421",
  "about": "“The antimicrobial peptide Magainin-2 interacts with BamA impairing folding of E. coli membrane proteins” (Frontiers in Chemistry, 2022)",
  "molecules": {"B1": {"name": "Magainin-2 (peptide, UniProt P11006 83-105, looked up)", "peptide": "GIGKFLHSAKKFGKAFVGEIMNS", "notes": "Magainin-2 (Mag-2), antimicrobial peptide of the African clawed frog Xenopus laevis; cut product of the magainins precursor; the docking text numbers it to Ser23; also called Mag-2; Maganin-2"}},
  "key": {"BamA [1]": {"system": "BamA", "conditions": "BamA identified as target; Gram-negative bacteria; ref Hart et al., 2019; Li et al., 2020; cited from earlier work", "description": "Among the putative Mag-2 interactors, we focused our attention on the Bam complex as the proteomic experiment led to the identification of all the protein components of this complex essential for bacterial surviving. In particular, BamA is the central component of the Bam complex while BamB, -C, -D and -E are four lipoproteins with a secondary role."}, "[2]": {"conditions": "cited from earlier work", "description": "Biophysical studies led to hypothesize three models that can explain the membrane disruption by AMPs: barrel-stave, toroidal pore and carpet mechanisms ([Di Somma et al., 2020]). According to these mechanisms, antimicrobial peptides interact with bacterial outer membranes, perturbing their integrity and causing their disaggregation ([Huang, 2006]). Most of AMPs show pore formation after binding to the membrane surface. X-ray crystallization studies and spectroscopic analyses reported that Alamethicin, a channel-forming peptide, insert into the lipid bilayer to form a barrel-stave pore structur ..."}, "BamA [3]": {"system": "BamA"}, "BamAp5": {"molecular_target": "T1, BamAp5 (Escherichia coli, UniProt P0A940)", "T1 construct": "6xHis; made in house; host or cells: E. coli BL21", "assay": "Intrinsic fluorescence binding titration", "design": "species or system E. coli", "description": "Fluorescence experiments were performed on a Fluoromax-4 spectrofluorometer from Horiba Scientific, using 1 cm optical path-length quartz cell under controlled temperature conditions (Peltier control system at 20°C). Titrations were carried out in 20 mM Tris-HCl pH 8.4, 0.2% triton. The intrinsic fluorescence intensity of BamAP5 at a concentration of 3.7 × 10^−6 M was monitored at 280 nm (slit 4 nm) and the emission was monitored at 308 nm (slit 4 nm) without and in the presence of increasing concentrations of Mag-2 peptide (from 2 to 18.64 µM). All experiments were performed in duplicate. The change in the fluorescence intensity of the reaction set was fit into “one site-specific binding” equation of GraphPad Prism 5 (GraphPad Software)."}, "OmpF": {"system": "OmpF", "conditions": "50 µM Mag-2 for 1h, 2 h and 3h; triplicate LC-MS/MS; t-test p < 0.05; with increasing time of incubation"}, "OmpA [4]": {"system": "OmpA", "assay": "Western blot densitometry of OmpA in E. coli after Mag-2 incubation", "type": "cell-based", "conditions": "75 µM Mag-2, 1 h", "description": "The E. coli cells were grown in the presence and in the absence of 50 µM Mag-2 for 1h, 2h and 3 h. The level of the OmpA protein was identified by Western Blot using a specific antiOmpA antibody. The amount of OmpA was then evaluated by densitometric analysis of the corresponding western blotted band. […] The same experiment was also carried out using a higher concentration of Mag-2 (75 µM) for as fixed time (1 h)."}, "bacterial membrane": {"system": "bacterial membrane", "conditions": "ref Billah et al., 2022; cited from earlier work", "description": "Peptide binding is favoured by both hydrophobic interactions between non-polar amino acids and the hydrophobic nucleus of the membrane and electrostatic interactions between the positive charges of the peptides and the negative charges of lipids ([Bahar and Ren, 2013]). Although the mechanism of action is not yet fully understood at molecular level, it is known that Magain ..."}, "[5]": {"system": "E. coli membrane proteins", "assay": "Pull-down proteomics, number of putative interactors", "type": "binding", "conditions": "biotinylated Mag-2 on avidin-agarose, biotin elution, LC-MS/MS; absent in control"}, "OmpA [6]": {"system": "OmpA", "assay": "LC-MRM/MS quantification of OmpA in E. coli after Mag-2 incubation", "type": "cell-based", "description": "Cone voltage was set to 35V."}, "[7]": {"molecular_target": "T2, 6XHis-tagged E. coli BamAp5 (β-barrel domain and fifth POTRA domain, residues 344-810) (E. coli, UniProt P0A940 344-810)", "T2 construct": "Monomer by DLS; also called recombinant form of BamA", "assay": "other fluorescence titration; intrinsic fluorescence of 3.7 x 10^-6 M BamAp5 (excitation 280 nm, emission 308 nm) with Mag-2 from 2 to 18.64 µM; 20 mM Tris-HCl pH 8.4, 0.2% triton, 20°C; one site-specific binding fit; duplicate", "conditions": "both partners purified"}},
  "note": "Where two headings read alike, the source gives them in different places.",
  "data": [
    {"molecule": "COC(=O)c1c(NC(=O)c2ccc([N+](=O)[O-])o2)sc2c1CCN(C(C)C)C2", "note": "[IMB-H4]", "values": [
      {"measurement": "inhibition of the assembly of OMPs", "setting": "BamA [1]", "value": "inhibits the assembly of OMPs in Gram-negative bacteria"}
    ]},
    {"molecule": "NC(N)=NC(=O)CC(Nc1nc(N=C(N)N)nc(NC2CCC(NC(=O)Cn3nnc(-c4ccc(F)cc4)n3)CC2)n1)C1CC1", "note": "(stereo not drawn) [MRL-494]", "values": [
      {"measurement": "inhibition of the assembly of OMPs", "setting": "BamA [1]", "value": "inhibits the assembly of OMPs in Gram-negative bacteria"}
    ]},
    {"molecule": "Alamethicin", "values": [
      {"measurement": "membrane pore formation", "setting": "[2]; X-ray crystallization and spectroscopic analyses, ref Qian et al., 2008", "value": "insert into the lipid bilayer to form a barrel-stave pore structure consisting of eight alamethicin helices"}
    ]},
    {"molecule": "Magainin-2 (GIGKFLHSAKKFGKAFVGEIMNS) [Mag-2, well-known antimicrobial peptide isolated from the African clawed frog Xenopus laevis]", "values": [
      {"measurement": "hydrodynamic radius of the protein in presence of peptide", "setting": "BamA [3]; DLS, 532.5 nm, peptide concentration ten times that of the protein, protein without peptide 4.7 ± 0.1 nm, at least 10 independent measurements", "value": "4.3 ± 0.1", "unit": "nm"},
      {"measurement": "aggregation state by DLS", "setting": "BamA [3]; samples without and with peptide (ten times higher concentration than protein)", "value": "only the protein monomer is present in both samples"},
      {"measurement": "Kd", "setting": "BamAp5; intrinsic fluorescence quenching, ex 280 nm, em 308 nm, BamAP5 3.7 × 10^−6 M, Mag-2 2 to 18.64 µM, 20 mM Tris-HCl pH 8.4, 0.2% triton, 20°C, duplicate, one site-specific binding fit, read-out: dissociation constant of the complex, Kd", "value": "3.5 ± 0.1", "unit": "µM"},
      {"measurement": "change of BamAP5 intrinsic fluorescence", "setting": "BamAp5; λexc 280 nm, BamAp5 3.7 × 10^−6 M, increasing Mag-2, 20°C", "value": "fluorescence decreased at increasing concentrations of the peptide"},
      {"measurement": "amount of OmpF by MRM", "setting": "OmpF", "value": "clear decrease"},
      {"measurement": "change of OmpA level", "setting": "OmpA [4]", "value": "rapid and drastic reduction of the OmpA level"},
      {"measurement": "mechanism of antimicrobial activity", "setting": "bacterial membrane", "value": "toroidal mechanism"},
      {"measurement": "number of putative protein interactors", "setting": "[5]", "value": 35},
      {"measurement": "amount of OmpA peptide 252-263 (DGSVVVLGYTDR) by MRM peak area", "setting": "OmpA [6]; 50 µM Mag-2, 1 h, vs control", "value": "decrease of the OmpA peptide"},
      {"measurement": "amount of OmpA by MRM", "setting": "OmpA [6]; 50 µM Mag-2 for 1h, 2 h and 3h, triplicate LC-MS/MS, t-test p < 0.05, with increasing time of incubation", "value": "clear decrease"}
    ]},
    {"molecule": "Melittin", "values": [
      {"measurement": "membrane pore formation", "setting": "[2]; fluorescence studies with phospholipid vesicles, ref Lohner and Blondelle, 2005", "value": "formation of pore coupled with the translocation of peptide across the lipid bilayer"}
    ]},
    {"molecule": "B1", "values": [
      {"measurement": "Kd", "setting": "[7]", "value": "0.0035 ± 0.0001", "unit": "µM"}
    ]}
  ]
}
